Test results taken from article PMC12141164, “Phase-1 study of vamotinib (PF-114), a 3rd generation BCR::ABL1 tyrosine kinase-inhibitor, in chronic myeloid leukaemia” (Annals of Hematology, 2025).
Where “and” joins values, the source holds several entries; their conditions need not be identical. Identical values can stand only once. Marks after values point to notes of the source that are not given here.

Test system: BCR::ABL1 positive CML
Assay: Phase-1 study: haematological, cytogenetic and molecular response
Assay type: in vivo, human
Conditions: for Best response achieved on PF-114: individual patients
Procedure: Haematological response evaluations were done on the first day of each cycle of therapy; molecular response on the first day of cycles 1, 2, 4, 7, 10, 13 and then every three months; cytogenetic response – at screening and on the first days of cycles 4, 7, 13 and every three months thereafter, provided that there was no major molecular response.
Cytogenetic response was assessed by differential staining of chromosomes and if uninformative, by fluorescent in situ hybridization (FISH). Mutations in BCR::ABL1 were assessed by Sanger and next generation sequencing (NGS). Sanger sequencing was done at each center; NGS analyses were done in the laboratory of Prof. Susan Branford, University of Adelaide. Discordances were resolved as described in Table S2. Molecular response was assessed using the ratio of BCR::ABL1 to ABL1 measured according to the IS [9].

[1] = Subjects after ponatinib (N = 5)

## Cc1ccc(C(=O)Nc2ccc(CN3CCN(C)CC3)c(C(F)(F)F)c2)cc1C#Cc1nnc2ccccn12 [vamotinib]
Advanced phase CML (N = 5)
  CCyR: none and 0/5
  MCyR: none and 0/5
  MMR: 0/5
BCR::ABL1^T315I
  subjects with BCR::ABL1^T315I who responded: 5 of 16 subjects
Cohort 1 50 mg N=3
  CCyR achieved at treatment: 0 no. (%)
  CCyR by 6 months: 0 no. (%)
  CCyR by 12 months: 0 no. (%)
  CHR achieved at treatment: 1 (50) no. (%)
  CHR by the 3 months: 0 no. (%)
  CHR by the 6th months: 0 no. (%)
  CHR by the 12th months: 1 (50) no. (%)
  MCyR achieved at treatment: 0 no. (%)
  MCyR by 6 months: 0 no. (%)
  MCyR by 12 months: 0 no. (%)
  MMR achieved at treatment: 0 no. (%)
  MMR by 6 months: 0 no. (%)
  MMR by 12 months: 0 no. (%)
  MMR by 24 months: 0 no. (%)
  Subjects with loss of CCyR: 0 no. (%)
  Subjects with loss of CHR: 0 no. (%)
  Subjects with loss of MCyR: 0 no. (%)
  Subjects with loss of MMR: 0 no. (%)
Cohort 2 100 mg N=3
  CCyR achieved at treatment: 1 (33) no. (%)
  CCyR by 6 months: 0 no. (%)
  CCyR by 12 months: 0 no. (%)
  CHR achieved at treatment: 0 no. (%)
  CHR by the 3 months: 0 no. (%)
  CHR by the 6th months: 0 no. (%)
  CHR by the 12th months: 0 no. (%)
  MCyR by 6 months: 1 (33) no. (%)
  MCyR by 12 months: 1 (33) no. (%)
  MMR achieved at treatment: 1 (33) no. (%)
  MMR by 6 months: 0 no. (%)
  MMR by 12 months: 0 no. (%)
  MMR by 24 months: 1 (33) no. (%)
  Subjects with loss of CCyR: 0 no. (%)
  Subjects with loss of CHR: 0 no. (%)
  Subjects with loss of MCyR: 0 no. (%)
  Subjects with loss of MMR: 0 no. (%)
Cohort 3 200 mg N=11
  CCyR achieved at treatment: 3 (30) no. (%)
  CCyR by 6 months: 2 (20) no. (%)
  CCyR by 12 months: 2 (20) no. (%)
  CHR achieved at treatment: 2 (40) no. (%)
  CHR by the 3 months: 2 (40) no. (%)
  CHR by the 6th months: 2 (40) no. (%)
  CHR by the 12th months: 2 (40) no. (%)
  MCyR achieved at treatment: 4 (50) no. (%)
  MCyR by 6 months: 3 (38) no. (%)
  MCyR by 12 months: 3 (38) no. (%)
  MMR achieved at treatment: 2 (18) no. (%)
  MMR by 6 months: 1 (9) no. (%)
  MMR by 12 months: 1 (9) no. (%)
  MMR by 24 months: 2 (18) no. (%)
  Subjects with loss of CCyR: 1 (33) no. (%)
  Subjects with loss of CHR: 2 (100) no. (%)
  Subjects with loss of MCyR: 1 (25) no. (%)
  Subjects with loss of MMR: 0 no. (%)
Cohort 4 400 mg N=12
  CCyR achieved at treatment: 1 (8) no. (%)
  CCyR by 6 months: 1 (8) no. (%)
  CCyR by 12 months: 1 (8) no. (%)
  CHR achieved at treatment: 4 (57) no. (%)
  CHR by the 3 months: 2 (29) no. (%)
  CHR by the 6th months: 2 (29) no. (%)
  CHR by the 12th months: 4 (57) no. (%)
  MCyR achieved at treatment: 2 (19) no. (%)
  MCyR by 6 months: 2 (19) no. (%)
  MCyR by 12 months: 2 (19) no. (%)
  MMR achieved at treatment: 0 no. (%)
  MMR by 6 months: 0 no. (%)
  MMR by 12 months: 0 no. (%)
  MMR by 24 months: 0 no. (%)
  Subjects with loss of CCyR: 0 no. (%)
  Subjects with loss of CHR: 4 (100) no. (%)
  Subjects with loss of MCyR: 0 no. (%)
  Subjects with loss of MMR: 0 no. (%)
Cohort 5 500 mg N=3
  CCyR achieved at treatment: 0 no. (%)
  CCyR by 6 months: 0 no. (%)
  CCyR by 12 months: 0 no. (%)
  CHR achieved at treatment: 0 no. (%)
  CHR by the 3 months: 0 no. (%)
  CHR by the 6th months: 0 no. (%)
  CHR by the 12th months: 0 no. (%)
  MCyR achieved at treatment: 0 no. (%)
  MCyR by 6 months: 0 no. (%)
  MCyR by 12 months: 0 no. (%)
  MMR achieved at treatment: 0 no. (%)
  MMR by 6 months: 0 no. (%)
  MMR by 12 months: 0 no. (%)
  MMR by 24 months: 0 no. (%)
  Subjects with loss of CCyR: 0 no. (%)
  Subjects with loss of CHR: 0 no. (%)
  Subjects with loss of MCyR: 0 no. (%)
  Subjects with loss of MMR: 0 no. (%)
Cohort 6 600 mg N=6
  CCyR achieved at treatment: 0 no. (%)
  CCyR by 6 months: 0 no. (%)
  CCyR by 12 months: 0 no. (%)
  CHR achieved at treatment: 2 (33) no. (%)
  CHR by the 3 months: 2 (33) no. (%)
  CHR by the 6th months: 2 (33) no. (%)
  CHR by the 12th months: 2 (33) no. (%)
  MCyR achieved at treatment: 0 no. (%)
  MCyR by 6 months: 0 no. (%)
  MCyR by 12 months: 0 no. (%)
  MMR achieved at treatment: 0 no. (%)
  MMR by 6 months: 0 no. (%)
  MMR by 12 months: 0 no. (%)
  MMR by 24 months: 0 no. (%)
  Subjects with loss of CCyR: 0 no. (%)
  Subjects with loss of CHR: 0 no. (%)
  Subjects with loss of MCyR: 0 no. (%)
  Subjects with loss of MMR: 0 no. (%)
Cohort 7 750 mg N=4
  CCyR achieved at treatment: 0 no. (%)
  CCyR by 6 months: 0 no. (%)
  CCyR by 12 months: 0 no. (%)
  CHR achieved at treatment: 1 (25) no. (%)
  CHR by the 3 months: 1 (25) no. (%)
  CHR by the 6th months: 1 (25) no. (%)
  CHR by the 12th months: 1 (25) no. (%)
  MCyR achieved at treatment: 0 no. (%)
  MCyR by 6 months: 0 no. (%)
  MCyR by 12 months: 0 no. (%)
  MMR achieved at treatment: 0 no. (%)
  MMR by 6 months: 0 no. (%)
  MMR by 12 months: 0 no. (%)
  MMR by 24 months: 0 no. (%)
  Subjects with loss of CCyR: 0 no. (%)
  Subjects with loss of CHR: 0 no. (%)
  Subjects with loss of MCyR: 0 no. (%)
  Subjects with loss of MMR: 0 no. (%)
Cohort 8 300 mg N=9
  CCyR achieved at treatment: 5 no. (%) and 5 (56) no. (%)
  CCyR by 6 months: 3 (33) no. (%)
  CCyR by 12 months: 4 (44) no. (%)
  CHR achieved at treatment: 4 (100) no. (%)
  CHR by the 3 months: 4 (100) no. (%)
  CHR by the 6th months: 4 (100) no. (%)
  CHR by the 12th months: 4 (100) no. (%)
  MCyR achieved at treatment: 6 no. (%) and 6 (86) no. (%)
  MCyR by 6 months: 4 (57) no. (%)
  MMR achieved at treatment: 4 no. (%) and 4 (44) no. (%)
  MMR by 6 months: 3 (33) no. (%)
  MMR by 12 months: 3 (33) no. (%)
  MMR by 24 months: 4 (44) no. (%)
  Subjects with loss of CCyR: 1 (20) no. (%)
  Subjects with loss of CHR: 2 (50) no. (%)
  Subjects with loss of MCyR: 1 (17) no. (%)
  Subjects with loss of MMR: 0 no. (%)
[1]
  CCyR: none and 0/5^*
  MCyR: none and 0/5
  MMR: 0/5^*
Subjects with BCR::ABL1^T315I (N = 16)
  MMR: 0/16
Total N=51
  CCyR achieved at treatment: 10 no. (%) and 10 (20) no. (%)
  CCyR by 6 months: 6 (12) no. (%)
  CCyR by 12 months: 7 (14) no. (%)
  CHR achieved at treatment: 14 no. (%) and 14 (47) no. (%)
  CHR by the 3 months: 11 (37) no. (%)
  CHR by the 6th months: 11 (37) no. (%)
  CHR by the 12th months: 14 (47) no. (%)
  MCyR achieved at treatment: 14 no. (%) and 14 (32) no. (%)
  MCyR by 6 months: 10 (23) no. (%)
  MCyR by 12 months: 11 (25) no. (%)
  MMR achieved at treatment: 7 no. (%) and 7 (14) no. (%)
  MMR by 6 months: 4 (8) no. (%)
  MMR by 12 months: 4 (8) no. (%)
  MMR by 24 months: 7 (14) no. (%)
  Subjects with loss of CCyR: 2 (20) no. (%)
  Subjects with loss of CHR: 8 no. (%) and 8 (57) no. (%)
  Subjects with loss of MCyR: 2 (14) no. (%)
Dose of 300 mg
  subjects achieving deep molecular response MR4.5: One
In vivo
  Median time to achieving a CHR: 3.8 months
  median time to MMR: 5,6 months
  median time to achievement of CCyR: 5.6 months
  median time to achievement of MCyR: 4.5 months
Dose cohort 50 mg
  Best response achieved on PF-114: CHR
Dose cohort 100 mg, listed as PF-114
  Best response achieved on PF-114: MCyR and MMR
Dose cohort 125 mg
  Best response achieved on PF-114: MR 4.5
Dose cohort 200 mg, listed as PF-114
  Best response achieved on PF-114: CHR and MCyR and CCyR and MR 4
Dose cohort 300 mg, listed as PF-114
  Best response achieved on PF-114: MMR and CHR and MR 4 and CCyR and MR 4.5
Dose cohort 400 mg, listed as PF-114
  Best response achieved on PF-114: CHR and CCyR and MCyR
Dose cohort 600 mg
  Best response achieved on PF-114: CHR
Dose cohort 750 mg
  Best response achieved on PF-114: CHR
One subject, myeloid variant M0 blast crisis, i(17) and BCR::ABL1^T315I
  time to CHR: 5 weeks
Subjects with BCR::ABL1^T315I
  duration of CCyR: 2.8 months
  duration of MCyR: 2.8 months
